Measurements from patent US6894073B2, “Use of diterpene compound as a therapeutic agent of inflammation, immune disease or cancer” (Korea Research Institute of Bioscience and Biotechnology, priority 2000, dated 2005).

Experiments:
nitric oxide (NO) = test: Inhibition of NO production (nitrite, Griess reagent) in LPS-stimulated Raw 264.7 macrophage cells; format: cell-based, murine; settings: for NO: 1 μg/ml LPS, 24 hours
Method: To investigate whether kaurane diterpene compounds obtained in Example 1 can inhibit the production of nitric oxide (NO) which induces apoptosis of the immune and neuron cells, the present inventors measured the amount of nitrite (NO2) accumulated in the culture medium of LPS-stimulated murine macrophage cells, which were treated with four kaurane diterpene compounds, kamebanin, kamebacetal A, kamebakaurin, or exisanin A.
In detail, Raw 264.7 murine macrophage cells (ATCC TIB-71) in DMEM medium were seeded to 96-well plate at a cell density of 1×10^5 cells/well and incubated for 3 hours at 37° C., 5% CO2 incubator. To induce NO synthesis in the macrophage cell, 1 μg/ml of LPS and 3 μg/ml, 0.3 μg/ml, and 0.03 μg/ml of kaurane diterpene compounds of the present invention were added to the medium and the plate was incubated for 24 hours. The amount of NO2, the final oxidation product of NO induced by the LPS in the medium was measured as followed. After collecting and centrifuging incubated medium, 100 μl of Griess reagent was added into 100 μl of each culture medium. Then, the medium was incubated for ten minutes at room temperature and absorbance at 550 nm wavelength was measured. Griess reagent was prepared by mixing a solution, wherein 1% sulfanilamide was dissolved in 5% phosphoric acid, and a solution of 0.1% naphyhylethylenediamine-HCl by a 1:1 ratio. To measure the amount of standard NO synthesis, NaNO2 was serially diluted and the absorbance was measured after reacting it with Griess reagent. From this, the standard curve for the amount of NO production was obtained. The amount of NO production in the culture medium treated with each compound was estimated using standard curve for NO determination.

NF-κB = NF-κB activation, SEAP reporter in LPS-stimulated RAW-NF-AP cells; format: cell-based, murine; settings: Mus musculus
Method: RAW-NF-AP cells, which can be used effectively to detect the NF-κB dependent expression of reporter gene, (Korean Patent Application No. 1999-0006025), were seeded to a 96-well plate at a cell density of 1×10^5 cell/well and were incubated for 3 hours at 37° C. in a 5% CO2 incubator. Thereafter, 1 μg/ml concentration of LPS and 0.03 μg/ml, 0.3 μg/ml, and 3 μg/ml concentrations of kaurane diterpene compounds of the present invention were added to each well and was incubated for 16 hours. After collecting supernatant by centrifugation, the amount of secreted alkaline phosphatase (SEAP) in the culture medium of which expression is regulated by the activation of NF-κB was quantified.

adjuvant arthritis model = test: Adjuvant arthritis model, paw volume; format: in vivo, Sprague-Dawley rat; settings: for Inhibition rate (%) of arthritis: day 16-22, paw volume on 23rd day
Method: Finding the inhibitory effect of kaurane diterpene compounds on the production of NO, prostaglandin, and TNF, and on the activation of NF-κB in the murine macrophage cells stimulated by LPS, the present inventors investigated the pharmacological efficacy of kaurane diterpene compounds with a adjuvant arthritis model according to the method of Futaki et al. (General Pharmacology, 1993, 24, 105-110). To prepare animal model of the arthritis, 0.05 ml of 0.1% Mycobacterium butyricum suspended in Freud adjuvant (Sigma, USA) was injected intradermally to the left hind paw of the male Sprague-Dawley rat of 180 g weight. On the fifteenth day after injection, the volume of the right paw of the rats was measured using plethysmometer (Ugo-Basile, Italy), and only the rats having arthritis on the right leg were selected. Thereafter, the selected rats were divided into four groups, six rats per each group. Four kinds of kaurane diterpene compounds of the present invention were administered orally to each groups everyday from the sixteenth day to twenty-second day with doses of 3 mg/kg/day, 10 mg/kg/day, and 20 mg/kg/day in the form of the suspended solution with 0.1% methylcellulose. The inhibition rate of arthritis was calculated by comparing the volume of the paw with that of the control on the 23rd day.

cIAP-1 = test: TNF-α-induced cIAP-1 protein expression, Western blot, MCF-7 and HT-1080 cells; format: cell-based; settings: 1, 5, 10 μg/ml, 20 ng/ml TNF-α 3 hours
Method: MCF-7 cells and HT-1080 cells were pretreated for 30 minutes with 1 μg/ml, 5 μg/ml, and 10 μg/ml concentrations of four kinds of kaurane diterpene compounds, respectively. After that, 20 ng/ml concentrations of TNF-α were treated for three hours to induce the expression of cIAP-1 and cIAP-2 proteins. Protein extract was prepared from cultured cells using buffer solution for protein extraction consisting of 50 mM Tris-HCL (pH 7.5), 1% Nonidet P40, 150 mM NaCl, 1 mM EDTA, 1 mM phenylmethyl sulfonyl fluoride, […]. 50 μg of protein extract of the control and compound-treated groups was applied to the SDS-polyacrylamide gel electrophoresis. After transferring the proteins into the polyvinylidene difluoride membrane, the membrane was blocked with 5% skim milk for three hours, and were reacted with antibodies against cIAP-1, cIAP-2, Bcl-2, and Bax proteins (Santa Cruz Biochemicals). The membrane was washed with PBS and was reacted with secondary antibody conjugated with horseradish peroxidase. After washing again with PBS, the protein was detected by ECL system (Amersham Pharmacia Biotec).

iNOS mRNA = iNOS mRNA expression, RT-PCR, LPS-stimulated Raw 264.7 cells; format: cell-based, murine; settings: 1 μg/ml, LPS 1 μg/ml, 6 hours
Method: (§1) Raw 264.7 murine macrophage cells were treated simultaneously with 1 μg/ml concentrations of LPS and 0.1 μg/ml, 0.3 μg/ml, 1 μg/ml, and 3 μg/ml concentrations of kamebakaurin and were incubated for 6 hours at 37° C. in a 5% CO2 incubator. After isolation of total RNA, reverse transcriptase-polymerase chain reaction (RT-PCR) was performed using said RNA as a template and primer pairs represented by SEQ. ID NO. 3 and 4 for iNOS gene and primer pairs represented by SEQ. ID NO. 5 and 6 for COX-2.

COX-2 mRNA = COX-2 mRNA expression, RT-PCR, LPS-stimulated Raw 264.7 cells; format: cell-based, murine
Method: as §1

**Q.** Which results are given for C=C1C(=O)[C@@]23[C@H](O)C[C@@H]4C(C)(C)CC[C@H](O)[C@@]4(CO)[C@@H]2CC[C@@H]1[C@H]3O [Kamebakaurin, kamebakaurin]?
**A.** NO (nitric oxide (NO); 0.03 μg/ml compound): 29.1 ± 4.2 µM; NO (nitric oxide (NO); 0.3 μg/ml compound): 16.1 ± 2.8 µM; NO (nitric oxide (NO); 3 μg/ml compound): 3.6 ± 0.7 µM; inhibition at 0.03 µg/mL (nitric oxide (NO); Mus musculus, RAW264.7, 0.03 μg/ml compound, read-out: Inhibition rate (%) of NO production): 44.2%; inhibition at 0.3 µg/mL (nitric oxide (NO); Mus musculus, RAW264.7, 0.3 μg/ml compound, read-out: Inhibition rate (%) of NO production): 72.4%; inhibition at 3 µg/mL (nitric oxide (NO); Mus musculus, RAW264.7, 3 μg/ml compound, read-out: Inhibition rate (%) of NO production): 99.3%; IC50 (nitric oxide (NO); Mus musculus, RAW264.7, LPS-stimulated Raw 264.7 cells): 0.15 µM; inhibition at 0.03 µg/mL (NF-κB; 0.03 μg/ml compound, 1 μg/ml LPS, 16 hours): 2.5%; inhibition at 0.3 µg/mL (NF-κB; 0.3 μg/ml compound, 1 μg/ml LPS, 16 hours): 33.1%; inhibition at 3 µg/mL (NF-κB; 3 μg/ml compound, 1 μg/ml LPS, 16 hours): 96.4%; IC50 (NF-κB; RAW-NF-AP cells, LPS): 1.11 µM; Inhibition rate (%) of arthritis (adjuvant arthritis model; 3 mg/kg/day oral): 35 ± 19%; Inhibition rate (%) of arthritis (adjuvant arthritis model; 10 mg/kg/day oral): 59 ± 11%; Inhibition rate (%) of arthritis (adjuvant arthritis model; 20 mg/kg/day oral): 71 ± 17%; Suppression of arthritis (in words) (adjuvant arthritis model; 3, 10, 20 mg/kg/day oral): suppressed dose-dependently; Expression of cIAP-1 protein induced by TNF-α (cIAP-1): inhibited; Expression of iNOS mRNA (iNOS mRNA): completely suppressed; Expression of COX mRNA (COX-2 mRNA; 1 μg/ml): inhibited; Expression of COX-2 mRNA (COX-2 mRNA; 3 μg/ml, LPS 1 μg/ml, 6 hours): completely suppressed
